The values below come from US20070021419A1, “2-Aminophenyl-4-phenylpyrimidines as kinase inhibitors” (Cyclacel Limited, priority 2003, published 2007).

SMILES strings stand for the structures.

The target in one assay is CDK2/cyclin A (Homo sapiens, UniProt P24941). Put plainly: Kinase assay, radioactive phosphate incorporation, CDK2/cyclin A. In kind it is biochemical. As to conditions: 100 μM ATP, 30° C.; read-out: Kinase inhibition IC50 CDK2/cyclin A. In a few lines:
(§1)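 Recombinant kinase complexes (2-4 μg active enzyme) were incubated at 30° C with polypeptide substrates in buffer of 25 mM β-glycerophosphate, 20 mM MOPS, 5 mM EGTA, 1 mM DTT, 1 mM […], pH 7.4. Reactions began with 15 mM MgCl2 plus 100 μM ATP spiked with [γ-32P]-ATP. Substrate-incorporated radioactivity was counted after filter capture.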

The target of the next assay is T1, Aurora-A (Homo sapiens, UniProt O14965).
T1 sequence (O14965 1-403): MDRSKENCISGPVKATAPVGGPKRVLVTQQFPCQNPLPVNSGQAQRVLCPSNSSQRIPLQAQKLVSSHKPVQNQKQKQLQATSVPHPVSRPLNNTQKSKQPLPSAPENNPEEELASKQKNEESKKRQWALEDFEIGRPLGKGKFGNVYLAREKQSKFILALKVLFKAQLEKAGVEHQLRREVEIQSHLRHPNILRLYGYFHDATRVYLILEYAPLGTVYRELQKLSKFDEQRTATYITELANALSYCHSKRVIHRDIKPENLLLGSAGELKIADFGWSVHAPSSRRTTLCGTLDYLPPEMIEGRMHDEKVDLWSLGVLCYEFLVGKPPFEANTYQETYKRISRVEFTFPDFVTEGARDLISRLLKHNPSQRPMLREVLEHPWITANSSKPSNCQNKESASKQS
Put plainly: Kinase assay, radioactive phosphate incorporation, Aurora-A. In kind it is biochemical. As to conditions: 100 μM ATP, 30° C.; read-out: Kinase inhibition IC50 Aurora-A. As for the experimental part: (§2) The compounds from the examples above were investigated for their ability to inhibit the enzymatic activity of various protein kinases. This was achieved by measurement of incorporation of radioactive phosphate from ATP into appropriate polypeptide substrates. Recombinant protein kinases and kinase complexes were produced or obtained commercially. Assays were performed using 96-well plates and appropriate assay buffers (typically 25 mM β-glycerophosphate, 20 mM MOPS, 5 MM EGTA, 1 mM DTT, 1 mM Na3VO3, pH 7.4), into which were added 2-4 μg of active enzyme with appropriate substrates. The reactions were initiated by addition of Mg/ATP mix (15 mM MgCl2+100 μM ATP with 30-50 kBq per well of [γ-^32P]-ATP) and mixtures incubated as required at 30° C. Reactions were stopped on ice, followed by filtration through p81 filterplates or GF/C filterplates (Whatman Polyfiltronics, Kent, UK). After washing 3 times with 75 mM aq orthophosphoric acid, plates were dried, scintillant added and incorporated radioactivity measured in a scintillation counter (TopCount, Packard Instruments, Pangbourne, Berks, UK). Compounds for kinase assay were made up as 10 mM stocks in DMSO and diluted into 10% DMSO in assay buffer.

In another assay the target is CDK9/cyclin T1 (Homo sapiens, UniProt P50750). The assay is described as follows: Kinase assay, radioactive phosphate incorporation, CDK9/cyclin T1. In kind it is biochemical. As to conditions: 100 μM ATP, 30° C.; read-out: Kinase inhibition IC50 CDK9/cyclin T1. A digest of the protocol: as §1
CDK9/cyclin T1, sequence (P50750 whole entry, species assumed): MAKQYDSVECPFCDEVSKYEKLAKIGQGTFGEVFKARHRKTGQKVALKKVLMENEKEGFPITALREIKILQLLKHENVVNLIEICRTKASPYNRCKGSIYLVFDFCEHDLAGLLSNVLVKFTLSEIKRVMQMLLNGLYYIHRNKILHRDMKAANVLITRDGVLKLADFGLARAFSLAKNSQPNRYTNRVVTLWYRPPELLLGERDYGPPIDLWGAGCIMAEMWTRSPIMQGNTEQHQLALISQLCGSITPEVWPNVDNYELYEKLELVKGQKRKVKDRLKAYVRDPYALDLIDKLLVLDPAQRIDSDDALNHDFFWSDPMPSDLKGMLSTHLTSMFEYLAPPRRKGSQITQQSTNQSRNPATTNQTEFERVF
CDK9/cyclin T1, sequence (O60563 whole entry partner, species assumed): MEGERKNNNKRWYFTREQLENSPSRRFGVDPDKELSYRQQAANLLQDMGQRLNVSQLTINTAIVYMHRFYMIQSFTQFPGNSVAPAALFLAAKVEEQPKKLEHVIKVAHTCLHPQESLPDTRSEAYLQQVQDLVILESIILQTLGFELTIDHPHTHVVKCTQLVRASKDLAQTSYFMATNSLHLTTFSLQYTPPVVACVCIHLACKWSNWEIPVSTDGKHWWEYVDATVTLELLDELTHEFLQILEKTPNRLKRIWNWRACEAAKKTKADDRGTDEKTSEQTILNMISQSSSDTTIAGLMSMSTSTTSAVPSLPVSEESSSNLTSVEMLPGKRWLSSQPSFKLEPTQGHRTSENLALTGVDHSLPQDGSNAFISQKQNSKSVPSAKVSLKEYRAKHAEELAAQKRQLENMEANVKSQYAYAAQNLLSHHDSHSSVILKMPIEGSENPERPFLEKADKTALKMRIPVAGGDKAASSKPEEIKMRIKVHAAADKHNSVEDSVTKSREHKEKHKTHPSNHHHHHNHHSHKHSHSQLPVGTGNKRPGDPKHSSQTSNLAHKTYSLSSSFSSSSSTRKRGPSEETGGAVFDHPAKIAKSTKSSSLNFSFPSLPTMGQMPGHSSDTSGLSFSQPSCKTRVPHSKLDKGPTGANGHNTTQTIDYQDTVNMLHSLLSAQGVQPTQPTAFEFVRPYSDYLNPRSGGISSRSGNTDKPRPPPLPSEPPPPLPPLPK
The target of another assay is GSK3β (Homo sapiens, UniProt P49841). Put plainly: Kinase assay, radioactive phosphate incorporation, GSK3β. The conditions noted are these: 100 μM ATP, 30° C.; read-out: Kinase inhibition IC50 GSK3β. The class given is biochemical. In a few lines: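 Steps: enzyme (2-4 μg) plus substrate in pH 7.4 buffer with DTT and vanadate; start with 100 μM ATP/15 mM MgCl2 containing [γ-32P]-ATP; incubate at 30° C; stop on ice; filter, wash with 75 mM orthophosphoric acid; scintillation count. Compounds diluted from DMSO stocks into 10% DMSO buffer.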
GSK3β, sequence (P49841 whole entry, species assumed): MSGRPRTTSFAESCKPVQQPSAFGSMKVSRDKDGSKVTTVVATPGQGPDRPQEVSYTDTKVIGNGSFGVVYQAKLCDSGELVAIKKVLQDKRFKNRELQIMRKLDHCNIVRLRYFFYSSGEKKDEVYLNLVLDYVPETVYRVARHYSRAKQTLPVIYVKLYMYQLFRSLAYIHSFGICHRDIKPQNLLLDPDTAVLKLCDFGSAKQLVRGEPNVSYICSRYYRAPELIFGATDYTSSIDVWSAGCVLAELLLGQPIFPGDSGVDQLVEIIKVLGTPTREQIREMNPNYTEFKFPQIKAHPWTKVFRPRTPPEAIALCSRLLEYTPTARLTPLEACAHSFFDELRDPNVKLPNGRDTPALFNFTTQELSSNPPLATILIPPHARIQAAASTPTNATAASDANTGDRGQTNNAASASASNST

A further assay addresses CDK7/cyclin H (Homo sapiens, UniProt P50613). The assay is described as follows: Kinase assay, radioactive phosphate incorporation, CDK7/cyclin H. In kind it is biochemical. As to conditions: 100 μM ATP, 30° C.; read-out: Kinase inhibition IC50 CDK7/cyclin H. In a few lines: as §1
For another assay, the system named is A549. The assay is described as follows: 72-h MTT cytotoxicity assay, A549. The class given is cell-based. As to conditions: Homo sapiens, read-out: 72-h MTT IC50 A549, A549 cell line. In a few lines:
(§3)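 The read-out is MTT reduction: 4 h dark incubation with MTT from a 5 mg/mL stock, then dye solubilised in DMSO. This followed 72 h at 37° C exposure to a 1/3 dilution series of compound in triplicate. Wells were seeded according to doubling time and rested overnight before dosing.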
For orientation: Formazan colour is commonly taken as a measure of viable cells.

A further assay concerns HT29. The assay is described as follows: 72-h MTT cytotoxicity assay, HT29. The class given is cell-based. As to conditions: Homo sapiens, HT-29, read-out: 72-h MTT IC50 HT29, HT29 cell line. A digest of the protocol: as §3
A further assay concerns Saos-2. Put plainly: 72-h MTT cytotoxicity assay, Saos-2. The class given is cell-based. As to conditions: Homo sapiens, read-out: 72-h MTT IC50 Saos-2, Saos-2 cell line. In a few lines: as §3
In the next assay the target is CDK2/cyclin E (Homo sapiens, UniProt P24941). Put plainly: Kinase assay, radioactive phosphate incorporation, CDK2/cyclin E. The class given is biochemical. As to conditions: 100 μM ATP, 30° C.; read-out: Kinase inhibition IC50 CDK2/cyclin E. A digest of the protocol: as §1
Assay [1] has as its system transformed human cell lines (A549, HT29, Saos-2). Put plainly: 72-h MTT cytotoxicity assay, average of cell lines. In kind it is cell-based. As to conditions: read-out: 72-h MTT IC50 Average, average of A549, HT29, Saos-2. In a few lines:
as §3

For another assay, the target named is CDK4/cyclin D1 (Homo sapiens, UniProt P11802). Put plainly: Kinase assay, radioactive phosphate incorporation, CDK4/cyclin D1. The class given is biochemical. The conditions noted are these: 100 μM ATP, 30° C.; read-out: Kinase inhibition IC50 CDK4/cyclin D1. A digest of the protocol:
as §1

The target in another assay is CDK1/cyclin B (Homo sapiens, UniProt P06493). Put plainly: Kinase assay, radioactive phosphate incorporation, CDK1/cyclin B. The class given is biochemical. As to conditions: 100 μM ATP, 30° C.; read-out: Kinase inhibition IC50 CDK1/cyclin B. As for the experimental part: as §2
CDK1/cyclin B, sequence (P06493 whole entry, species assumed): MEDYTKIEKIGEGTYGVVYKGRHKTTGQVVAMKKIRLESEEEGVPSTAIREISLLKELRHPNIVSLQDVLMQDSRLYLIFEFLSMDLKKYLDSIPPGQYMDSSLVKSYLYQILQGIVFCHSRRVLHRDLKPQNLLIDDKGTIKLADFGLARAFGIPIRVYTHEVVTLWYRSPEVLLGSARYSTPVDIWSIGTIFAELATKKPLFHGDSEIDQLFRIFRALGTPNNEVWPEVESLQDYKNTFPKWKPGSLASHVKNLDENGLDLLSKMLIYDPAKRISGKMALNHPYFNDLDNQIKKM
CDK1/cyclin B, sequence (P14635 whole entry partner, species assumed): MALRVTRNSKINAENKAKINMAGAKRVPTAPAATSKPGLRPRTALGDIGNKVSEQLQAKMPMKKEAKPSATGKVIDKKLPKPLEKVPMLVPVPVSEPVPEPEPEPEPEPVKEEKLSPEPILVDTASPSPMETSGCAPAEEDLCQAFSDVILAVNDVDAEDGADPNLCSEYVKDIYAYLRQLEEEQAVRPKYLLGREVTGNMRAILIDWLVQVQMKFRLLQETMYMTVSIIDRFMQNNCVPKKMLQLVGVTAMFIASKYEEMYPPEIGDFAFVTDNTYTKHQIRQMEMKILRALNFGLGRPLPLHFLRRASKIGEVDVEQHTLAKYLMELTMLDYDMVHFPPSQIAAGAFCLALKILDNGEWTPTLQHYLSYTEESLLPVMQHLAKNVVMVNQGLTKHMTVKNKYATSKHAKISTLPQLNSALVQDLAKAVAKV

CDK4/cyclin D1, sequence (P11802 whole entry, species assumed): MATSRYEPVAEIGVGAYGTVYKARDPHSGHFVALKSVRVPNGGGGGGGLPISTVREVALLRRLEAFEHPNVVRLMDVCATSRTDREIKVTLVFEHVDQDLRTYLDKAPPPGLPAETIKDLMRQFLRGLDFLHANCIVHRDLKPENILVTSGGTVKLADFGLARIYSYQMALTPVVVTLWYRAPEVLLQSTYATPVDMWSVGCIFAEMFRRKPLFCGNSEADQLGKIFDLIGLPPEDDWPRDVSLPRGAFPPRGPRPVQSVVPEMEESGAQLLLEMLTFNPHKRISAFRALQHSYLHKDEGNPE
CDK4/cyclin D1, sequence (P24385 whole entry partner, species assumed): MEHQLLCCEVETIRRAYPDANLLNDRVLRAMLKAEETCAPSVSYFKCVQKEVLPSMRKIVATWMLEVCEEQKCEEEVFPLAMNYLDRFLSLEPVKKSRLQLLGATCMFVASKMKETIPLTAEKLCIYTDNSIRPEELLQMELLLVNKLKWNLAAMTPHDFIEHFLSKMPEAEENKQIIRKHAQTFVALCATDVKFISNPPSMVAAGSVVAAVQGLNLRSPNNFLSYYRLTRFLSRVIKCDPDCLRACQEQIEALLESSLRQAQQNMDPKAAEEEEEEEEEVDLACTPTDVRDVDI
CDK7/cyclin H, sequence (P50613 whole entry, species assumed): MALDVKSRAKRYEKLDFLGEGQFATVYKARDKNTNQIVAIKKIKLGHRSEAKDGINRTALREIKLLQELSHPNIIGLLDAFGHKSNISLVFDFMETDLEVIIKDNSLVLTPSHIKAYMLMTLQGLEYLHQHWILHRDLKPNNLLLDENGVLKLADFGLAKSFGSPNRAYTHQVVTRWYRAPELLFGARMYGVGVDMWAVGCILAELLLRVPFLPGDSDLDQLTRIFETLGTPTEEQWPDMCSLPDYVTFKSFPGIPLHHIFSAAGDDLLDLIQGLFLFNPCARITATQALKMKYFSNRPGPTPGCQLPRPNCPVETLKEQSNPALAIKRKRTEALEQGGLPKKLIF
CDK7/cyclin H, sequence (P51946 whole entry partner, species assumed): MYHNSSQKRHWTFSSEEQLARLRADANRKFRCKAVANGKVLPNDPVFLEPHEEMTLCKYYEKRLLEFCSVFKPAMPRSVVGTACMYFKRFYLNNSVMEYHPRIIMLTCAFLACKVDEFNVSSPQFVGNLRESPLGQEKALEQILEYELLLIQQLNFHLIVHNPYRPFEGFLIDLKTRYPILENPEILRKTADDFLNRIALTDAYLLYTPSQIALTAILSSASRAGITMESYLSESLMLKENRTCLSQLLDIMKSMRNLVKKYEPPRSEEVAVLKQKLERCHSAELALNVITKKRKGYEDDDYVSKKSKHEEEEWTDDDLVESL

On to `OCc1cccc(-c2ccnc(Nc3cccc(O)c3)n2)c1` [Compound 115, 3-[4-(3-Hydroxymethyl-phenyl)-pyrimidin-2-ylamino]-phenol], for which the IC50 is 2000 nM on CDK2/cyclin A; 720 nM at Aurora-A; 40 nM on CDK9/cyclin T1; 70 nM at GSK3β; 3100 nM on CDK7/cyclin H.

Consider `O=[N+]([O-])c1cccc(Nc2nccc(-c3cccc(CN4CCCC4CNc4ccccc4)c3)n2)c1` (stereo not drawn) [Compound 86, (3-Nitro-phenyl)-{4-[3-(2-phenylaminomethyl-pyrrolidin-1-ylmethyl)-phenyl]-pyrimidin-2-yl}-amine], for which the IC50 worked out at 49300 nM with A549; 2400 nM at Aurora-A; 8900 nM with HT29; 130 nM on CDK9/cyclin T1; 160 nM at GSK3β; 670 nM at CDK7/cyclin H. The IC50 in the assay on Saos-2 was found to be 55800 nM; on CDK2/cyclin E, 810 nM; in [1] it was 38000 ± 25400 nM.

For the molecule `Oc1ccc(Nc2nccc(-c3cccc(C(F)(F)F)c3)n2)cc1` [Compound 96, 4-[4-(3-trifluoromethyl-phenyl)-pyrimidin-2-ylamino]-phenol], the IC50 was 20 nM on Aurora-A and 80 nM at CDK9/cyclin T1.

Take `COc1ccc(Nc2nccc(-c3cccc(N(C)S(C)(=O)=O)c3)n2)cn1` [Compound 132, N-{3-[2-(6-Methoxy-pyridin-3-ylamino)-pyrimidin-4-yl]-phenyl}-N-methyl-methanesulfonamide]: the IC50 was 390 nM on Aurora-A; 60 nM at CDK9/cyclin T1; 170 nM at GSK3β; 2100 nM on CDK4/cyclin D1; 3900 nM at CDK7/cyclin H.

In the case of `Oc1ccc(Nc2nccc(-c3cccc(F)c3)n2)cc1` [Compound 113, 4-[4-(3-Fluoro-phenyl)-pyrimidin-2-ylamino]-phenol], the figures for the IC50 at Aurora-A and on CDK9/cyclin T1 were 140 nM and 150 nM, respectively.

For the molecule `CCOc1ccc(-c2ccnc(Nc3cccc(O)c3)n2)cc1` [Compound 109, 3-[4-(4-Ethoxy-phenyl)-pyrimidin-2-ylamino]-phenol], the IC50 was 2000 nM at CDK2/cyclin A, 700 nM at Aurora-A and 140 nM on CDK9/cyclin T1.

Turning to `O=[N+]([O-])c1cccc(Nc2nccc(-c3ccc(CN4CCCCC4CO)cc3)n2)c1` (stereo not drawn) [Compound 127, (1-{4-[2-(3-Nitro-phenylamino)-pyrimidin-4-yl]-benzyl}-piperidin-2-yl)-methanol], the IC50 at Aurora-A was found to be 1100 nM; on CDK9/cyclin T1, 900 nM.

Turning to `COc1ccc(-c2ccnc(Nc3ccc(N4CCOCC4)cc3)n2)cc1` [Compound 111, [4-(4-Methoxy-phenyl)-pyrimidin-2-yl]-(4-morpholin-4-yl-phenyl)-amine], on Aurora-A, the IC50 was determined as 520 nM.

For `COc1cccc(-c2ccnc(Nc3cccc(F)c3)n2)c1` [Compound 118, (3-Fluoro-phenyl)-[4-(3-methoxy-phenyl)-pyrimidin-2-yl]-amine], the IC50 is 1800 nM at Aurora-A and 20 nM on CDK9/cyclin T1.

In the case of `Oc1cccc(Nc2nccc(-c3cccc(C(F)(F)F)c3)n2)c1` [Compound 95, 3-[4-(3-trifluoromethyl-phenyl)-pyrimidin-2-ylamino]-phenol], the IC50 on Aurora-A was determined as 990 nM; on CDK9/cyclin T1, 90 nM.

Consider `Oc1cccc(Nc2nccc(-c3cc(F)ccc3F)n2)c1` [Compound 114, 3-[4-(2,5-Difluoro-phenyl)-pyrimidin-2-ylamino]-phenol], for which the figures for the IC50 at Aurora-A and at CDK9/cyclin T1 were 160 nM and 120 nM, respectively.

For the molecule `CS(=O)(=O)c1cccc(Nc2nccc(-c3cccc(Cn4cncn4)c3)n2)c1` [Compound 104, (3-Methanesulfonyl-phenyl)-[4-(3-[1,2,4]triazol-1-ylmethyl-phenyl)-pyrimidin-2-yl]-amine], the IC50 on Aurora-A was determined as 1500 nM; on CDK9/cyclin T1, 60 nM; on GSK3β, 280 nM; at CDK7/cyclin H it was 6400 nM.

Turning to `CCN(Cc1cccc(-c2ccnc(Nc3cccc([N+](=O)[O-])c3)n2)c1)C(C)C` [Compound 46, (4-{3-[(Ethyl-isopropyl-amino)-methyl]-phenyl}-pyrimidin-2-yl)-(3-nitro-phenyl)-amine], the IC50 turned out to be 960 nM in the assay with A549; 480 nM at CDK2/cyclin A; 30 nM at Aurora-A; 530 nM in the assay on HT29; 2 nM at CDK9/cyclin T1; 100 nM at GSK3β. In addition, the IC50 on CDK4/cyclin D1 came to 1400 nM; at CDK7/cyclin H, 130 nM; in the assay with Saos-2, 1100 nM; on CDK2/cyclin E, 170 nM; in assay [1], 900 ± 300 nM.

For the molecule `O=[N+]([O-])c1cccc(Nc2nccc(-c3ccc(CCn4cncn4)cc3)n2)c1` [Compound 126, (3-Nitro-phenyl)-{4-[4-(2-[1,2,4]triazol-1-yl-ethyl)-phenyl]-pyrimidin-2-yl}-amine], the values for the IC50 on Aurora-A, on CDK9/cyclin T1 and at GSK3β were 340 nM, 90 nM and 10 nM, respectively.

On to `O=[N+]([O-])c1cccc(Nc2nccc(-c3cccc(CN4CCOCC4)c3)n2)c1` [Compound 39, [4-(3-Morpholin-4-ylmethyl-phenyl)-pyrimidin-2-yl]-(3-nitro-phenyl)-amine], for which the IC50 with A549 was 6800 nM; at CDK2/cyclin A, 2400 nM; in the assay with HT29 it was 2000 nM; at CDK9/cyclin T1, 110 nM; at GSK3β, 150 nM; on CDK4/cyclin D1, 2410 nM. For the same molecule, the IC50 came out at 38 nM on CDK7/cyclin H; 8000 nM in the assay with Saos-2; 120 nM on CDK2/cyclin E; 5600 ± 3200 nM in assay [1]; 350 nM on CDK1/cyclin B.

Take `COc1ccc(Nc2nccc(-c3cccc(CO)c3)n2)cn1` [Compound 125, {3-[2-(6-Methoxy-pyridin-3-ylamino)-pyrimidin-4-yl]-phenyl}-methanol]: the IC50 on Aurora-A was determined as 960 nM; at CDK9/cyclin T1, 120 nM; at GSK3β, 40 nM; on CDK7/cyclin H, 5900 nM.

Turning to `OCc1cccc(-c2ccnc(Nc3cccc(F)c3)n2)c1` [Compound 116, {3-[2-(3-Fluoro-phenylamino)-pyrimidin-4-yl]-phenyl}-methanol], the IC50 on Aurora-A worked out at 630 nM; on CDK9/cyclin T1, 50 nM.

With `O=[N+]([O-])c1cccc(Nc2nccc(-c3cccc(Cl)c3)n2)c1` [Compound 112, [4-(3-Chloro-phenyl)-pyrimidin-2-yl]-(3-nitro-phenyl)-amine], the figures for the IC50 on Aurora-A, on CDK9/cyclin T1 and at GSK3β were 2600 nM, 70 nM and 160 nM, respectively.

As for `Oc1ccc(Nc2nccc(-c3cccc(O)c3)n2)cc1` [Compound 122, 3-[2-(4-Hydroxy-phenylamino)-pyrimidin-4-yl]-phenol], the IC50 at Aurora-A is 6 nM; on CDK9/cyclin T1 it was 190 nM.
